Laboratory results reported in US20140128272A1, “Method for Inducing Dormancy of Cancer Tissue-Derived Cell Mass and Method for Evaluating Treating Means with the Use of Cancer-Tissue-Derived Cell Mass” (Osaka Prefectural Hospital Organization, priority 2012, published 2014).

Columns and labels:
[1] = tested on: cancer tissue-derived cell mass (sample C45, human colon cancer); assay: in vitro drug sensitivity test with cancer tissue-derived cell mass, normal versus dormant state; format: cell-based; details: day 7, 5-FU and oxaliplatin 0.01-10 μg/ml, SN38 0.001-1 ng/ml, FIG. 6; for response of cancer tissue-derived cell mass to drug concentration (relative increase rate of area, no drug = 1): dormant state (dormancy medium); for proliferation of cancer cells in the cancer tissue-derived cell mass (relative increase rate of area, no drug = 1): normal culture conditions (StemPro hESC SFM medium)
Description: Using SN38,5-FU, and oxaliplatin known as anti-cancer agents, a drug sensitivity test was performed with C45 sample of Example 2. The test was proceeded by culturing the C45 obtained in example 2, in 1 cc of a dormancy medium or StemPro hESC SFM (Gibco; A10007-01) medium. Further, as to each drug, 5-FU and oxaliplatin were applied at concentrations of 0.01 μg/ml, 0.1 μg/ml, 1 μg/ml, and 10 μg/ml, and SN38 was applied at concentrations of 0.001 ng/ml, 0.01 ng/ml, 0.1 ng/ml, and 1 ng/ml, and comparative evaluation of the culture state was performed on day 7 after each culture. An increase rate of the area of the cancer tissue-derived cell mass was relatively expressed when the increase rate of the area under culture with no drug application was expressed as 1.

[2] = tested on: cancer tissue-derived cell mass (sample C45, human colon cancer); assay: effect of growth factors on proliferation of cancer tissue-derived cell mass under 1% oxygen; format: cell-based; details: added to dormancy medium under hypoxic conditions (1% oxygen); heregulin 10 ng/ml, IGF 200 ng/ml, or both; FIG. 4
Description: The cancer tissue-derived cell mass obtained in Example 2 was purified as a composition and cultured in a dormancy medium (20 ml): DMEM/F12 with GlutaMAX (Invitrogen) 18.5 ml, 25% BSA (Invitrogen) 1.44 ml, and 2ME Stock […] in a 6 cm non-treated dish (EIKEN CHEMICAL: AG2000) in a personal gas incubator (APM-30D, ASTEC Co., Ltd.) or INVIVO2 400 (RUSKINN) for 15 days at 37° C. under the conditions of an oxygen concentration of 1%.

Compound	response of cancer tissue-derived cell mass to drug concentration (relative increase rate of area, no drug = 1) [1]	proliferation of cancer cells in the cancer tissue-derived cell mass (relative increase rate of area, no drug = 1) [1]	growth of the cancer tissue-derived cell mass [2]
O=c1[nH]cc(F)c(=O)[nH]1 [5-FU]	did not respond to the concentration of drugs at all or responded little to it	suppressed	
CCc1c2c(nc3ccc(O)cc13)-c1cc3c(c(=O)n1C2)COC(=O)[C@]3(O)CC [SN38]	did not respond to the concentration of drugs at all or responded little to it	suppressed	
O=C1[O][Pt]2([NH][C@@H]3CCCC[C@H]3[NH]2)[O]C1=O [oxaliplatin]	did not respond to the concentration of drugs at all or responded little to it	suppressed	
heregulin			grew up rapidly
insulin-like growth factor [IGF]			grew up rapidly
